Patent US20190030166A1, “PERCUTANEOUSLY ABSORBABLE COMPOSITION CONTROLLED IN RELEASE OF WATER-SOLUBLE EFFECTIVE INGREDIENT” (NISSAN CHEMICAL CORPORATION, priority 2016, published 2019)
Peptide text beside a SMILES is read from it.

test: Oil solubilization of Peptide A or B using citral; assay type: physicochemical; conditions: 2 mg peptide, 0.1 mL citral, 0.1 mL ethanol, 80° C. (Peptide A 3 hours, Peptide B 4 hours); 50 μL ethanol solution + 150 μL IPM
Procedure: The oil solubilization experiment of Peptide A is as follows.
Preparation conditions under heating at 80° C. are as follows.
Preparation conditions under stirring at room temperature are as follows. To 1 mL of a screw-top sample tube were added 2 mg of Peptide B, 0.1 mL of citral and 0.1 mL of ethanol, and the mixture was stirred at room temperature for 22 hours to obtain an ethanol solution.

Compound | Solution state in IPM
CSCC[C@H](NC(=O)[C@H](CC(C)C)NC(=O)[C@@H](NC(=O)[C@H](Cc1ccccc1)NC(=O)CNC(=O)[C@@H](NC(=O)[C@H](CC(C)C)NC(=O)[C@H](CCCCN)NC(=O)[C@H](C)NC(=O)[C@H](Cc1ccccc1)NC(=O)[C@@H](N)CCC(N)=O)[C@@H](C)O)[C@@H](C)O)C(=O)NCC(=O)O [Peptide A] (H-QFAKLTGFTLMG-OH; N-terminus and C-terminus assumed) | pale yellow peptide IPM solution
CSCC[C@H](NC(=O)[C@@H](N)CO)C(=O)N[C@@H](CCCCN)C(=O)N[C@H](C(=O)N[C@H](C(=O)N[C@H](C(=O)N[C@@H](C)C(=O)N[C@@H](Cc1ccccc1)C(=O)N[C@@H](CC(N)=O)C(=O)N[C@@H](CCC(N)=O)C(=O)N[C@@H](Cc1ccccc1)C(=O)NCC(=O)N1CCC[C@H]1C(=O)O)C(C)C)[C@@H](C)O)C(C)C [Peptide B] (H-SMKVTVAFNQFGP-OH; N-terminus and C-terminus assumed) | pale yellow peptide IPM solution

same assay, conditions: 2 mg peptide, 0.1 mL citral, 0.1 mL ethanol, stirred at room temperature 22 hours

Compound | State of ethanol solution
CSCC[C@H](NC(=O)[C@@H](N)CO)C(=O)N[C@@H](CCCCN)C(=O)N[C@H](C(=O)N[C@H](C(=O)N[C@H](C(=O)N[C@@H](C)C(=O)N[C@@H](Cc1ccccc1)C(=O)N[C@@H](CC(N)=O)C(=O)N[C@@H](CCC(N)=O)C(=O)N[C@@H](Cc1ccccc1)C(=O)NCC(=O)N1CCC[C@H]1C(=O)O)C(C)C)[C@@H](C)O)C(C)C [Peptide B] (H-SMKVTVAFNQFGP-OH; N-terminus and C-terminus assumed) | yellow gel-like substance

test: not given; conditions: not given
Procedure: Solubilization of the complex with citronellal or citral in ethanol was examined while keeping the amino acid as crystal. The amino acids are different in the crystalline state in the commercial products depending on the kind thereof, so that there were fear that the results might cause fluctuation. Thus, an operation for enlarging the surface in contact with the liquid was added by making the difference due to crystals small as well as making the surface area as much as possible. Specifically, the crystals of the amino acids were ground in a mortar and then sieved through a 100 μm sieve to provide powders, which were used in the present test.
The amount and heating time of citronellal or citral necessary for solubilizing the obtained complex in ethanol, and the dispersed state of the obtained complex in ethanol was confirmed.

Compound | Amount of citral necessary for solubilizing in ethanol | Heating time necessary for solubilizing in ethanol | Amount of citronellal necessary for solubilizing in ethanol
CC[C@H](C)[C@H](N)C(=O)O [Isoleucine, L(+)-isoleucine] | 700 mg | 0.25 h | –
NC(=O)CC[C@H](N)C(=O)O [Glutamine, L(+)-glutamine] | 700 mg | 24 h | –
N[C@@H](Cc1c[nH]cn1)C(=O)O [Histidine, L-histidine] | – | 17.5 h | 700 mg
C[C@H](N)C(=O)O [L-Alanine, L-alanine] | 700 mg | 5 h | –
NCCCC[C@H](N)C(=O)O [Lysine, L-(+) lysine] | – | 0.5 h | 700 mg
N[C@@H](CS)C(=O)O [L-cysteine] | – | 0.33 h | 700 mg
CC(C)[C@H](N)C(=O)O [Valine, L-valine] | 700 mg | 3 h | –
N[C@@H](Cc1c[nH]c2ccccc12)C(=O)O [Tryptophan, L-tryptophan] | – | 24 h | 700 mg
